Reference: patent publication US20240174679A1, “HETEROAROYL AMIDES AS LRRK2 INHIBITORS, PHARMACEUTICAL COMPOSITIONS, AND USES THEREOF” (MERCK SHARP & DOHME LLC, priority 2021, published 2024)

Target: GST tagged truncated human mutant G2019S LRRK2 (Homo sapiens (Human), UniProt Q5S007, G2019S)
Assay: LRRK2 Km ATP LanthaScreen Assay
Type: biochemical
Conditions: 134 μM ATP (Km ATP), LRRKtide substrate, negative log of mean IC50 (molar); for IC50: read-out: LRRK2 pIC50 (converted)
Outline: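 Truncated GST-tagged G2019S LRRK2 (1.25 nM enzyme solution) was preincubated with compound for 15 min at rt, then reacted for 90 min with fluorescein-LRRKtide and 134 μM ATP (Km) in Tris pH 8.5/MgCl2 buffer. After an EDTA stop, TR-FRET used a Tb anti-pERM antibody (520/495 nm ratio). IC50 came from a 4-parameter fit and is reported as pIC50, mean of several runs.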

Sequence of GST tagged truncated human mutant G2019S LRRK2 (Q5S007 970-2527 G2019S): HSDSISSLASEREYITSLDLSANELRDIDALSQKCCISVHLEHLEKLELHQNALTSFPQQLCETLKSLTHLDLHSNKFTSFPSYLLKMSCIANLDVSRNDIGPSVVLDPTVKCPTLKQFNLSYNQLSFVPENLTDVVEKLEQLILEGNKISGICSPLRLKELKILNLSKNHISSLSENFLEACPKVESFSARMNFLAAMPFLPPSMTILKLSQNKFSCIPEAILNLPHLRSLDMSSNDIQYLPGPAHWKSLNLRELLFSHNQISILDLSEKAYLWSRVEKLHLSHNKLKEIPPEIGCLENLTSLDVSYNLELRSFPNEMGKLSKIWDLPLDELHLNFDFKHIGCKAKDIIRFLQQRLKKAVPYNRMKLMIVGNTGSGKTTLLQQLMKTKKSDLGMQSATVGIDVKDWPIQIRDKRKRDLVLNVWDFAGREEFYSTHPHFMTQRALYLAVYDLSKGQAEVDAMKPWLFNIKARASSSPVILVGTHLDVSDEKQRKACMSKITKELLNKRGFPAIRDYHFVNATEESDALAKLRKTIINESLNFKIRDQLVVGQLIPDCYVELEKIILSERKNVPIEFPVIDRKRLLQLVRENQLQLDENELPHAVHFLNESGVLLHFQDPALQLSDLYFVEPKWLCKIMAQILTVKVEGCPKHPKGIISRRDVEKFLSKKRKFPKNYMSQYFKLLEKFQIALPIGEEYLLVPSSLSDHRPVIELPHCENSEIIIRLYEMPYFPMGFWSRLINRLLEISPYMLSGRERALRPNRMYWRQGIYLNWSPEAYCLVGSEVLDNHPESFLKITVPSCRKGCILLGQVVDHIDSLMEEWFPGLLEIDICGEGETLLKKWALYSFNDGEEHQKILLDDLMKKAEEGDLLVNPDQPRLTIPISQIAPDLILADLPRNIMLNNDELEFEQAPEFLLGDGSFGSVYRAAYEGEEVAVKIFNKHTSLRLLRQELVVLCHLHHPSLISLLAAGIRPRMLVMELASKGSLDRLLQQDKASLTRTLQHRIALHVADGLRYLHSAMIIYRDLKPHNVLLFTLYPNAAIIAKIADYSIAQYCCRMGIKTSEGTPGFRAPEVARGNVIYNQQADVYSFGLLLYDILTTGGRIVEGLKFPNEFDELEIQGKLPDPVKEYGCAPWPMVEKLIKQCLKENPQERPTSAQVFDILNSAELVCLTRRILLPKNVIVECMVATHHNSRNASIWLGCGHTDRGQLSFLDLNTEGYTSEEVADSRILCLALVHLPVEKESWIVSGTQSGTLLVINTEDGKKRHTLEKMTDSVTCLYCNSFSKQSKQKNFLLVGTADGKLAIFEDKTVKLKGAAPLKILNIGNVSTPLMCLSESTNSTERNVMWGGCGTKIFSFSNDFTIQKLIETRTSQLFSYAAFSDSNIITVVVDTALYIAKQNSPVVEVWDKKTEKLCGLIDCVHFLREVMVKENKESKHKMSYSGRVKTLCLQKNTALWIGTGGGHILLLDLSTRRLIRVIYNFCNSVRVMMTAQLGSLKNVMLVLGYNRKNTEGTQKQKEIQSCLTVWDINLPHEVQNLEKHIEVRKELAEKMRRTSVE

Row | SMILES | LRRK2 pIC50 | IC50
1 | O=C(Nc1cnn(CC2CCC2)c1)c1csc(-c2cn[nH]c2)n1 [Example 7-1, N-(1-(Cyclobutylmethyl)-1H-pyrazol-4-yl)-2-(1H-pyrazol-4-yl)thiazole-4-carboxamide] | 7.76 | –
2 | O=C(Nc1cnn(C2CCC2)c1)c1csc(-n2ccnc2)n1 [Example 11-2, N-(1-cyclobutyl-1H-pyrazol-4-yl)-2-(1H-imidazol-1-yl)thiazole-4-carboxamide] | 6.61 | –
3 | N#CC1(Cn2cc(NC(=O)c3csc(-c4cn[nH]c4)n3)cn2)CCNCC1 [Example 7-28, N-{1-[(4-cyanopiperidin-4-yl)methyl]-1H-pyrazol-4-yl}-2-(1H-pyrazol-4-yl)-1,3-thiazole-4-carboxamide] | 6.71 | –
4 | CC(C1CC1)n1cc(NC(=O)c2csc(-c3cn[nH]c3)n2)cn1 (single isomer, unassigned) [Example 2-2, (S)- or (R)—N-(1-(1-cyclopropylethyl)-1H-pyrazol-4-yl)-2-(1H-pyrazol-4-yl)thiazole-4-carboxamide] | – | 38 nM
5 | O=C(Nc1cnn(CC2CCC2)c1)c1cccc(-c2ccc(F)cc2F)n1 [Example 9-11, N-[1-(cyclobutylmethyl)-1H-pyrazol-4-yl]-6-(2,4-difluorophenyl) pyridine-2-carboxamide] | 5.63 | –
6 | COc1nn(C)cc1NC(=O)c1csc(-c2cn[nH]c2)n1 [Example 1-14, N-(3-methoxy-1-methyl-1H-pyrazol-4-yl)-2-(1H-pyrazol-4-yl)-1,3-thiazole-4-carboxamide] | 7.13 | –
7 | O=C(Nc1cnn(CC2CCC2)c1)c1cccc(-c2ccoc2)n1 [Example 9-5, N-[1-(cyclobutylmethyl)-1H-pyrazol-4-yl]-6-furan-3-ylpyridine-2-carboxamide] | 5.79 | –
8 | O=C(Nc1cnn(-c2ccccc2)c1)c1csc(-c2cn[nH]c2)n1 [Example 1-24, N-(1-phenyl-1H-pyrazol-4-yl)-2-(1H-pyrazol-4-yl)-1,3-thiazole-4-carboxamide] | 7.56 | –
9 | CC1COc2c(-c3cccc(C(=O)Nc4cnn(CC5CCC5)c4)n3)cnn2C1 (centres unmarked) [Example 9-7, N-[1-(cyclobutylmethyl)-1H-pyrazol-4-yl]-6-(6-methyl-6,7-dihydro-5H-pyrazolo[5,1-b][1,3]oxazin-3-yl)pyridine-2-carboxamide] | 6.87 | –
10 | Cc1[nH]ncc1-c1nc(C(=O)Nc2cnn(C3CCC3)c2)cs1 [Example 9-18, N-(1-cyclobutyl-1H-pyrazol-4-yl)-2-(5-methyl-1H-pyrazol-4-yl)-1,3-thiazole-4-carboxamide] | 7.59 | –
11 | O=C(Nc1cnn(C2CCC2)c1)c1csc(-c2cnn3c2CCCC3)n1 [Example 9-27, N-(1-cyclobutyl-1H-pyrazol-4-yl)-2-(4,5,6,7-tetrahydropyrazolo [1,5-a]pyridin-3-yl)-1,3-thiazole-4-carboxamide] | 8.25 | –
12 | CC(C)Oc1cccc(C(=O)Nc2cnn(C3CCC3)c2)n1 [Example 4-6, N-(1-cyclobutyl-1H-pyrazol-4-yl)-6-(1-methylethoxy) pyridine-2-carboxamide] | 7.10 | –
13 | CC(C)n1cc(NC(=O)c2coc(-c3cn[nH]c3)n2)cn1 [Example 1-39, N-[1-(1-methylethyl)-1H-pyrazol-4-yl]-2-(1H-pyrazol-4-yl)-1,3-oxazole-4-carboxamide] | 6.36 | –
14 | COc1nn(C2CCC2)cc1NC(=O)c1csc(-c2cn[nH]c2)n1 [Example 1-22, N-(1-cyclobutyl-3-methoxy-1H-pyrazol-4-yl)-2-(1H-pyrazol-4-yl)-1,3-thiazole-4-carboxamide] | 7.76 | –
15 | Cn1cc(-c2cccc(C(=O)Nc3cnn(CC4CCC4)c3)n2)cn1 [Example 9-25, N-[1-(cyclobutylmethyl)-1H-pyrazol-4-yl]-6-(1-methyl-1H-pyrazol-4-yl)pyridine-2-carboxamide] | 7.38 | –
16 | O=C(Nc1cn(C2CC2)nc1C(F)F)c1csc(-c2cn[nH]c2)n1 [Example 1-38, N-[1-cyclopropyl-3-(difluoromethyl)-1H-pyrazol-4-yl]-2-(1H-pyrazol-4-yl)-1,3-thiazole-4-carboxamide] | 8.23 | –
17 | Cc1n[nH]c(C)c1-c1cccc(C(=O)Nc2cnn(CC3CCC3)c2)n1 [Example 9-26, N-[1-(cyclobutylmethyl)-1H-pyrazol-4-yl]-6-(3,5-dimethyl-1H-pyrazol-4-yl)pyridine-2-carboxamide] | 6.09 | –
18 | CC(C)n1cc(NC(=O)c2csc(-c3cn[nH]c3)n2)cn1 [Example 1-20, N-[1-(1-methylethyl)-1H-pyrazol-4-yl]-2-(1H-pyrazol-4-yl)-1,3-thiazole-4-carboxamide] | 7.68 | –

Row | SMILES | LRRK2 pIC50 | IC50
19 | O=C(Nc1cnn(CC2CCC2)c1)c1cccc(-c2csc3ccccc23)n1 [Example 9-31, 6-(1-benzothiophen-3-yl)-N-[1-(cyclobutylmethyl)-1H-pyrazol-4-yl]pyridine-2-carboxamide] | 5.18 | –
20 | CC(=O)Nc1cccc(C(=O)Nc2cnn(C3CCC3)c2)n1 [Example 4-8, 6-(acetylamino)-N-(1-cyclobutyl-1H-pyrazol-4-yl)pyridine-2-carboxamide] | 6.33 | –
21 | CCOCCn1cc(NC(=O)c2csc(-c3cn[nH]c3)n2)c(C(F)F)n1 [Example 7-40, N-[3-(difluoromethyl)-1-(2-ethoxyethyl)-1H-pyrazol-4-yl]-2-(1H-pyrazol-4-yl)-1,3-thiazole-4-carboxamide] | 6.97 | –
22 | CC(C#N)n1cc(NC(=O)c2csc(-c3cn[nH]c3)n2)c(C(F)F)n1 (centres unmarked) [Example 7-31, N-[1-(1-cyanoethyl)-3-(difluoromethyl)-1H-pyrazol-4-yl]-2-(1H-pyrazol-4-yl)-1,3-thiazole-4-carboxamide] | 7.40 | –
23 | O=C(Nc1cnn(C2CCC2)c1)c1coc(-c2ccccc2)n1 [Example 4-4, N-(1-cyclobutyl-1H-pyrazol-4-yl)-2-phenyl-1,3-oxazole-4-carboxamide] | 5.68 | –
24 | O=C(Nc1cnn(C[C@H]2CCNC2)c1)c1csc(-c2cn[nH]c2)n1 [Example 7-26, 2-(1H-pyrazol-4-yl)-N-(1-{[(3S)-pyrrolidin-3-yl]methyl}-1H-pyrazol-4-yl)-1,3-thiazole-4-carboxamide] | 6.84 | –
25 | COCC1(Cn2cc(NC(=O)c3csc(-c4cn[nH]c4)n3)cn2)CCC1 [Example 1-29, N-(1-{[1-(methoxymethyl)cyclobutyl]methyl}-1H-pyrazol-4-yl)-2-(1H-pyrazol-4-yl)-1,3-thiazole-4-carboxamide] | 7.82 | –
26 | O=C(Nc1cnn(C2CCC2)c1)c1csc(-c2cnn3c2OCCC3)n1 [Example 9-21, N-(1-cyclobutyl-1H-pyrazol-4-yl)-2-(6,7-dihydro-5H-pyrazolo[5,1-b][1,3]oxazin-3-yl)-1,3-thiazole-4-carboxamide] | 8.08 | –
27 | O=C(Nc1cn(CC2CCC2)nc1C(F)F)c1csc(-c2cn[nH]c2)n1 [Example 7-11, N-[1-(cyclobutylmethyl)-3-(difluoromethyl)-1H-pyrazol-4-yl]-2-(1H-pyrazol-4-yl)-1,3-thiazole-4-carboxamide] | 7.55 | –
28 | Cn1cnc(-c2nc(C(=O)Nc3cnn(C4CCC4)c3)cs2)c1 [Example 9-9, N-(1-cyclobutyl-1H-pyrazol-4-yl)-2-(1-methyl-1H-imidazol-4-yl)-1,3-thiazole-4-carboxamide] | 8.04 | –
29 | CC(C)(C)n1cc(NC(=O)c2csc(-c3cn[nH]c3)n2)cn1 [Example 1-17, N-(1-tert-butyl-1H-pyrazol-4-yl)-2-(1H-pyrazol-4-yl)-1,3-thiazole-4-carboxamide] | 7.22 | –
30 | CS(=O)(=O)CC1(Cn2cc(NC(=O)c3csc(-c4cn[nH]c4)n3)cn2)CCC1 [Example 1-44, N-[1-({1-[(methylsulfonyl)methyl]cyclobutyl}methyl)-1H-pyrazol-4-yl]-2-(1H-pyrazol-4-yl)-1,3-thiazole-4-carboxamide] | 7.91 | –
31 | O=C(Nc1cn(CCF)nc1C(F)F)c1csc(-c2cn[nH]c2)n1 [Example 7-9, N-[3-(difluoromethyl)-1-(2-fluoroethyl)-1H-pyrazol-4-yl]-2-(1H-pyrazol-4-yl)-1,3-thiazole-4-carboxamide] | 7.75 | –
32 | Cn1cc(NC(=O)c2csc(-c3cn[nH]c3)n2)c(C2CC2)n1 [Example 1-42, N-(3-cyclopropyl-1-methyl-1H-pyrazol-4-yl)-2-(1H-pyrazol-4-yl)-1,3-thiazole-4-carboxamide] | 7.74 | –
33 | CC(C1CC1)n1cc(NC(=O)c2csc(-c3cn[nH]c3)n2)cn1 (single isomer, unassigned) [Example 2-1, (R)- or (S)—N-(1-(1-cyclopropylethyl)-1H-pyrazol-4-yl)-2-(1H-pyrazol-4-yl)thiazole-4-carboxamide] | – | 32.4 nM
34 | Cc1nn(C2CCC2)cc1NC(=O)c1csc(-c2cn[nH]c2)n1 [Example 1-3, N-(1-Cyclobutyl-3-methyl-1H-pyrazol-4-yl)-2-(1H-pyrazol-4-yl)thiazole-4-carboxamide] | 7.83 | –
35 | O=C(Nc1cnn(CC2CCC2)c1)c1cccc(-c2cnn3c2CCCC3)n1 [Example 9-13, N-[1-(cyclobutylmethyl)-1H-pyrazol-4-yl]-6-(4,5,6,7-tetrahydropyrazolo [1,5-a]pyridin-3-yl)pyridine-2-carboxamide] | 7.68 | –
